Values joined by “and” are separate entries in the source; they are usually repeats but may differ in a detail not shown here. Equal values may be shown once. Read-outs that look alike come from different tables or passages of the source.
Assays:
[1] = type: in vivo, healthy volunteers; conditions: for AUC from time zero to time t (AUCt) decrease: data not shown; for Tmax: both, human, plasma, oral
[2] = test system: CYP enzymes, OCT1/OCT2, MATE 1, glucuronidation; conditions: cited from earlier work
[3] = coadministered with the 3D regimen; cited from earlier work
[4] = coadministration with ritonavir; cited from earlier work
[5] = type: in vivo, healthy volunteers; conditions: for change in exposures: with any of the coadministered medications, apart from stated exceptions
[6] = Safety and tolerability assessments in the phase I studies; type: in vivo, healthy subjects; conditions: carisoprodol arm
[7] = coadministration with the 3D regimen
[8] = in the presence of the 3D regimen
[9] = alone and with the 3D regimen (not affected / similar)
[10] = upon coadministration with the 3D regimen

For `CNCCC=C1c2ccccc2C=Cc2ccccc21` [Norcyclobenzaprine], the “harmonic mean t½” value [1, 7] was 53 h, the median tmax [1, 7] was 24 h and the “Cmax change (increase or decrease)” value [1, 8] was less than 20%. The AUC decrease [1, 8] was 26%, the “harmonic mean t½” value ([1]; medication alone) was 86 h and the median tmax ([1]; medication alone) was 36 h. For the same molecule, the “proportion of AUC extrapolated after the last measurable timepoint” value (shortened to “proportion of AUC extrapolated”) ([1]; with the 3D regimen) was 21%, the “AUC from time zero to time t (AUCt) decrease” value ([1]; with the 3D regimen) was 7% and the “proportion of AUC extrapolated” value ([1]; without the 3D regimen) was 42%.

For `CN(C)C(=N)N=C(N)N` [Metformin], the median tmax [1, 9] was 4.0 h, the Cmax decrease [1, 8] was 23% and the AUC decrease [1, 8] was < 20% and 10%. The Metabolic pathway [2] was “OCT1/OCT2 substrate”.

In the case of `COc1ccc2[nH]c([S+]([O-])Cc3ncc(C)c(OC)c3C)nc2c1` (stereo not shown) [omeprazole], the exposures decrease [3] is given as ~ 40%.

In the case of `COc1cc(Cc2cnc(N)nc2N)cc(OC)c1OC` [Trimethoprim], the “increase in AUC” value [4] is listed as 20%, the AUC increase [1, 8] is listed as 22% and the Ctrough increase [1, 8] is listed as 25%. For the same molecule, the “changes in exposures (Cmax and AUC geometric mean ratios)” value [1, 10] was no more than 25%, the exposures increase [1, 10] was no more than 20% and the Metabolic pathway [2] was “Weak to moderate CYP2C8 inhibitor; weak OCT2 inhibitor; MATE 1 inhibitor”.

In the case of `CC(C)c1nc(CN(C)C(=O)N[C@H](C(=O)N[C@@H](Cc2ccccc2)C[C@H](O)[C@H](Cc2ccccc2)NC(=O)OCc2cncs2)C(C)C)cs1` [Ritonavir], the “change in (other) exposure parameters” value ([5]; in the presence of SMZ/TMP) is reported as less than 20% and the change in exposures [5] is reported as no more than 25%.

`CN(C)CCC=C1c2ccccc2C=Cc2ccccc21` [Cyclobenzaprine] showed a median tmax [1, 9] of 5.0 h, a Cmax decrease [1, 8] of 32% and an AUC decrease [1, 8] of 40%. The exposures decrease [1, 10] was “up to 46%”, the exposures decrease ([1]; upon coadministration with the 3D regimen, listed as cyclobenzaprine) was no more than 40% and the Metabolic pathway [2] was “CYP3A4, 1A2, and 2D6 substrate”.

In the case of `CC(=O)Nc1ccc(O)cc1` [Acetaminophen], the Metabolic pathway [2] is given as “Glucuronidation”.

With `CCCC(C)(COC(N)=O)COC(N)=O` [Meprobamate] the Tmax [1] was 3 to 4 h, the “AUC change (increase or decrease)” value [1, 8] was less than 20% and the “Cmax change (increase or decrease)” value [1, 8] was less than 20%.

With `CCCC(C)(COC(N)=O)COC(=O)NC(C)C` (stereo not shown) [Carisoprodol] the subjects reporting somnolence [6] was “five”, the Tmax [1] was 2 h and the Cmax decrease [1, 8] was 46%. The exposures decrease [1, 10] was no more than 46%.

Molecule `COc1c(-c2ccc3cc(NS(C)(=O)=O)ccc3c2)cc(-n2ccc(=O)[nH]c2=O)cc1C(C)(C)CO` [dasabuvir M1] has an exposures decrease ([5]; in the presence of SMZ/TMP, data not shown) of no more than 19%.

With `COc1c(-c2ccc3cc(NS(C)(=O)=O)ccc3c2)cc(-n2ccc(=O)[nH]c2=O)cc1C(C)(C)C` [Dasabuvir] the AUC increase ([5]; in the presence of SMZ/TMP) was 33%, the “change in (other) exposure parameters” value ([5]; in the presence of SMZ/TMP) was less than 20% and the exposures increase ([5]; in the presence of SMZ/TMP) was no more than 33%. For the same molecule, the change in exposures [5] was no more than 25%.

For `O=C1CN=C(c2ccccc2)c2cc(Cl)ccc2N1` [Nordiazepam], the Tmax [1] was 48 h, the Tmax ([1]; 2 mg) was 96 h and the Cmax increase [1, 8] was 10% and < 20%. For the same molecule, the “proportion of AUC extrapolated” value ([1]; with the 3D regimen) was 20%, the “AUC from time zero to time t (AUCt) decrease” value ([1]; with the 3D regimen) was 3% and the “proportion of AUC extrapolated” value ([1]; without the 3D regimen) was 46%.

With `COC(=O)N[C@H](C(=O)N1CCC[C@H]1C(=O)Nc1ccc([C@@H]2CC[C@@H](c3ccc(NC(=O)[C@@H]4CCCN4C(=O)[C@@H](NC(=O)OC)C(C)C)cc3)N2c2ccc(C(C)(C)C)cc2)cc1)C(C)C` [Ombitasvir] the “change in (other) exposure parameters” value ([5]; in the presence of SMZ/TMP) was less than 20% and the change in exposures [5] was no more than 25%.

`COc1ccc2c3c1O[C@H]1C(=O)CC[C@H]4[C@@H](C2)N(C)CC[C@]314` [Hydrocodone] gave a Tmax [1] of 2 h, an AUC increase [1, 8] of 90% and a Cmax increase [1, 8] of 27%.

In the case of `Cc1cnc(C(=O)N[C@H]2CCCCC/C=C\[C@@H]3C[C@@]3(C(=O)NS(=O)(=O)C3CC3)NC(=O)[C@@H]3C[C@@H](Oc4nc5ccccc5c5ccccc45)CN3C2=O)cn1` [Paritaprevir], the Tmax ([5]; both, human, plasma, oral, median tmax, in the presence of metformin) is reported as 5.5 h, the Cmax decrease ([5]; in the presence of SMZ/TMP) is reported as 22% and the “change in (other) exposure parameters” value ([5]; in the presence of SMZ/TMP) is reported as less than 20%. For the same molecule, the change in exposures [5] was no more than 25%, the Cmax decrease ([5]; with metformin) was 37% and the Ctrough increase ([5]; with metformin) was 22%.

Reference: PMC4933729 (Clinical Pharmacokinetics, 2016)
